Columns and labels:
[1] = target: T1, angiotensin II (A-II) receptor (Bos taurus, UniProt P25104); assay: Inhibitory Effect of Binding of Angiotensin-II to Angiotensin Receptor (radioreceptor assay, 125I-AII, adrenal cortex membrane fraction); details: bovine adrenal cortex membrane, room temperature, one hour
T1 construct: An A-II receptor membrane fraction was prepared from bovine adrenal cortex; from tissue; host or cells: bovine adrenal cortex membrane fraction
T1 sequence (P25104 1-359): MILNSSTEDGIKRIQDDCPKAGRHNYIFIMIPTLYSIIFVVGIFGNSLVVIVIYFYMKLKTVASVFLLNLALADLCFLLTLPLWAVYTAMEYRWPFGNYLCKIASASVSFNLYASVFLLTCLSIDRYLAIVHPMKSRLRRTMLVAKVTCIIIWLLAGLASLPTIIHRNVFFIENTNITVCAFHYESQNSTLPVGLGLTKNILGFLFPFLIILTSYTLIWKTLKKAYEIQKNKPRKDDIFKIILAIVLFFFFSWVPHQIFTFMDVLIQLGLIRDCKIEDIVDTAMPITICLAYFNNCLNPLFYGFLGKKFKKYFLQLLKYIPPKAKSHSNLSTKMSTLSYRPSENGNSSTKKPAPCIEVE
Description: Inhibitory Effect of Binding of Angiotensin-II to Angiotensin Receptor
An A-II receptor membrane fraction was prepared from bovine adrenal cortex.

[2] = test system: A-II-induced pressor action; assay: Inhibitory Effect of the Compound of the Present Invention on Pressor Action of AII (p.o.); format: in vivo, rat (Jcl: SD); details: rat, AII 100 ng/kg i.v.; for inhibition in vivo at 1 mg/kg / inhibition in vivo at 3 mg/kg: po, read-out: Pressor Response to A II (p.o.), percent inhibition class; for inhibition in vivo at 3 mg/kg: 3 mg/kg p.o.
Description: Inhibitory Effect of the Compound of the Present Invention on Pressor Action of AII
Jcl: SD rat (9 week old, male) were employed. On the day prior to the experiment, these animals were applied with cannulation into the femoral artery and vein under anesthesia with pentobarbital Na. These animals were fasted but allowed to free access to drinking water until the experiment was started. Just on the day of conducting the experiment, the artery cannula was connected with a blood-pressure transducer, and the average blood pressure was recorded by means of polygraph. Before administration of the drug, the pressor action due to intravenous administration of AII (100 ng/kg) as the control was determined. The drugs were orally administered, then, at each point of the determination, A-II was administered intravenously, and the pressor action was similarly determined. By comparing the pressor action before and after administration of the drug, the percent inhibition by the drug on A-II-induced pressor action was evaluated.

[3] = reported in literature; cited from earlier work

For CCOc1nc2cccc(C(=O)OC(C)OC(=O)OC3CCCCC3)c2n1Cc1ccc(-c2ccccc2-c2nc(=O)o[nH]2)cc1 (centres unmarked) [Example 4, 1-(Cyclohexyloxycarbonyloxy)ethyl 2-ethoxy-1-[[2'-(2,5-dihydro-5-oxo-1,2,4-oxadiazol-3-yl)biphenyl-4-yl]methyl]benzimidazole-7-carboxylate], the inhibition at 1 µM ([1]; 10^-6 M) was 44%, the inhibition at 0.1 µM ([1]; 10^-7 M) was 17% and the inhibition in vivo at 1 mg/kg ([2]; 1 mg/kg p.o.) was > 70%.
With COc1nc2c(C)sc(C(=O)O)c2n1Cc1ccc(-c2ccccc2-c2nc(=O)o[nH]2)cc1 [Example 9, 2-Methoxy-1-[[2'-(2,5-dihydro-5-oxo-1,2,4-oxadiazol-3-yl)biphenyl-4-yl]methyl]-4-methylthieno[3,4-d]imidazole-6-carboxylic Acid] the inhibition at 1 µM ([1]; 10^-6 M) was 55%, the inhibition at 0.1 µM ([1]; 10^-7 M) was 19% and the inhibition in vivo at 1 mg/kg ([2]; 1 mg/kg p.o.) was > 70%. The inhibition in vivo at 3 mg/kg [2] was > 70%.
For CCOc1nc2cccc(C(=O)O)c2n1Cc1ccc(-c2ccccc2-c2nc(=O)o[nH]2)cc1 [Example 1, 2-Ethoxy-1-[[2'-(2,5-dihydro-5-oxo-1,2,4-oxadiazol-3-yl)biphenyl-4-yl]methyl]benzimidazole-7-carboxylic Acid], the inhibition at 1 µM ([1]; 10^-6 M) was 79%, the inhibition at 0.1 µM ([1]; 10^-7 M) was 34% and the inhibition in vivo at 1 mg/kg ([2]; 1 mg/kg p.o.) was > 70%. For the same molecule, the inhibition in vivo at 3 mg/kg [2] was > 70%.
In the case of O=C(O)c1cccc2nc(C3CC3)n(Cc3ccc(-c4ccccc4-c4noc(=O)[nH]4)cc3)c12 [Example 32, 2-Cyclopropyl-1-[[2'-(2,5-dihydro-5-oxo-1,2,4-oxadiazol-3-yl)biphenyl-4-yl]methyl]benzimidazole-7-carboxylic acid], the inhibition at 1 µM ([1]; 10^-6 M) is reported as 75%, the inhibition at 0.1 µM ([1]; 10^-7 M) is reported as 27% and the inhibition in vivo at 1 mg/kg ([2]; 1 mg/kg p.o.) is reported as > 70%.
For CNCC(=O)N[C@@H](CCCN=C(N)N)C(=O)N[C@H](C(=O)N[C@@H](Cc1ccc(O)cc1)C(=O)N[C@H](C(=O)N[C@@H](Cc1cnc[nH]1)C(=O)N1CCC[C@H]1C(=O)N[C@@H](C)C(=O)O)C(C)C)C(C)C [saralasin], the “angiotensin II antagonist activity” value [3] is listed as “potent”.
For CCc1nc2c(C)cc(C(=O)O)nc2n1Cc1ccc(-c2ccccc2-c2nc(=O)o[nH]2)cc1 [Example 56, 2-Ethyl-3-[[2'-(2,5-dihydro-5-oxo-1,2,4-oxadiazol-3-yl)biphenyl-4-yl]methyl]-7-methylimidazo[4,5-b]pyridine-5-carboxylic acid], the inhibition at 1 µM ([1]; 10^-6 M) was 94%, the inhibition at 0.1 µM ([1]; 10^-7 M) was 80% and the inhibition in vivo at 1 mg/kg ([2]; 1 mg/kg p.o.) was > 70%.
In the case of CCNc1nc2c(C)sc(C(=O)O)c2n1Cc1ccc(-c2ccccc2-c2nc(=O)o[nH]2)cc1 [Example 12, 2-Ethylamino-1-[[2'-(2,5-dihydro-5-oxo-1,2,4-oxadiazol-3-yl)biphenyl-4-yl]methyl]-4-methylthieno[3,4-d]imidazole-6-carboxylic Acid], the inhibition at 1 µM ([1]; 10^-6 M) is reported as 78%, the inhibition at 0.1 µM ([1]; 10^-7 M) is reported as 46% and the inhibition in vivo at 1 mg/kg ([2]; 1 mg/kg p.o.) is reported as < 50%.
For “Acetoxymethyl 1-[[2'-(4-acetoxymethyl-4,5-dihdyro-5-oxo-4H-1,2,4-oxadiazol-3-yl)biphenyl-4-yl]methyl]-2-ethoxybenzimidazole-7-carboxylate [Example 13]”, the “Radioreceptor assay % inhibition” value ([1]; 10^-6 M) was 69%, the “Radioreceptor assay % inhibition” value ([1]; 10^-7 M) was 31% and the “Pressor Response to A II (p.o.), percent inhibition class” value ([2]; 1 mg/kg p.o.) was “+++ (+++ ≥ 70%)”.
In the case of CCSc1nc2c(C)sc(C(=O)O)c2n1Cc1ccc(-c2ccccc2-c2noc(=O)[nH]2)cc1 [Example 8, 2-Ethylthio-1-[[2'-(2,5-dihydro-5-oxo-1,2,4-oxadiazol-3-yl)biphenyl-4-yl]methyl]-4-methylthieno[3,4-d]imidazole-6-carboxylic Acid], the inhibition at 1 µM ([1]; 10^-6 M) is reported as 40%, the inhibition at 0.1 µM ([1]; 10^-7 M) is reported as 8% and the inhibition in vivo at 1 mg/kg ([2]; 1 mg/kg p.o.) is reported as > 70%.
For CCc1nc2cccc(C(=O)O)c2n1Cc1ccc(-c2ccccc2-c2nc(=O)o[nH]2)cc1 [Example 31, 2-Ethyl-1-[[2'-(2,5-dihydro-5-oxo-1,2,4-oxadiazol-3-yl)-biphenyl-4-yl]methyl]benzimidazole-7-carboxylic Acid], the inhibition at 1 µM ([1]; 10^-6 M) was 79%, the inhibition at 0.1 µM ([1]; 10^-7 M) was 41% and the inhibition in vivo at 1 mg/kg ([2]; 1 mg/kg p.o.) was > 70%.
With COc1nc2cccc(C(=O)O)c2n1Cc1ccc(-c2ccccc2-c2noc(=O)[nH]2)cc1 [Example 35, 1-[[2'-(2,5-Dihydro-5-oxo-1,2,4-oxadiazol-3-yl)biphenyl-4-yl]methyl]-2-methoxybenzimidazole-7-carboxylic acid] the inhibition at 1 µM ([1]; 10^-6 M) was 79%, the inhibition at 0.1 µM ([1]; 10^-7 M) was 38% and the inhibition in vivo at 1 mg/kg ([2]; 1 mg/kg p.o.) was > 70%.
In the case of CCOc1nc2cccc(C(=O)OC)c2n1Cc1ccc(-c2ccccc2-c2nc(=O)s[nH]2)cc1 [Example 60, Methyl 2-ethoxy-1-[[2'-(2,5-dihydro-5-oxo-1,2,4-thiadiazol-3-yl)biphenyl-4-yl]methyl]benzimidazole-7-carboxylate], the inhibition at 1 µM ([1]; 10^-6 M) is reported as 84%, the inhibition at 0.1 µM ([1]; 10^-7 M) is reported as 43% and the inhibition in vivo at 1 mg/kg ([2]; 1 mg/kg p.o.) is reported as > 70%.
For CCOc1nc2c(C)sc(C(=O)O)c2n1Cc1ccc(-c2ccccc2-c2nc(=O)o[nH]2)cc1 [Example 10, 2-Ethoxy-1-[[2'-(2,5-dihydro-5-oxo-1,2,4-oxadiazol-3-yl)biphenyl-4-yl]methyl]-4-methylthieno[3,4-d]imidazole-6-carboxylic Acid], the inhibition at 1 µM ([1]; 10^-6 M) was 51%, the inhibition at 0.1 µM ([1]; 10^-7 M) was 17% and the inhibition in vivo at 1 mg/kg ([2]; 1 mg/kg p.o.) was > 70%.
CCCCc1nc2cccc(C(=O)O)c2n1Cc1ccc(-c2ccccc2-c2noc(=O)[nH]2)cc1 [Example 33, 2-Butyl-1-[[2'-(2,5-dihydro-5-oxo-1,2,4-oxadiazol-3-yl)-biphenyl-4-yl]methyl]benzimidazole-7-carboxylic acid] gave an inhibition at 1 µM ([1]; 10^-6 M) of 70%, an inhibition at 0.1 µM ([1]; 10^-7 M) of 23% and an inhibition in vivo at 1 mg/kg ([2]; 1 mg/kg p.o.) of 50 to 70%.
For CCCOc1nc2c(C)sc(C(=O)O)c2n1Cc1ccc(-c2ccccc2-c2nc(=O)o[nH]2)cc1 [Example 11, 1-[2'-(2,5-Dihydro-5-oxo-1,2,4-oxadiazol-3-yl)biphenyl-4-yl]methyl-4-methyl-2-n-propoxythieno[3,4-d]imidazole-6-carboxylic Acid], the inhibition at 1 µM ([1]; 10^-6 M) was 41% and the inhibition in vivo at 1 mg/kg ([2]; 1 mg/kg p.o.) was > 70%.
For CCOc1nc2cccc(C(=O)OC)c2n1Cc1ccc(-c2ccccc2C2=NOS(=O)N2)cc1 (centres unmarked) [Example 3, Methyl 2-ethoxy-1-[[2'-(2-oxo-3H-1,2,3,5-oxathiadiazol-4-yl)biphenyl]methyl]benzimidazole-7-carboxylate], the inhibition at 1 µM ([1]; 10^-6 M) was 75%, the inhibition at 0.1 µM ([1]; 10^-7 M) was 33% and the inhibition in vivo at 3 mg/kg [2] was > 70%.
With CCCOc1nc2cccc(C(=O)O)c2n1Cc1ccc(-c2ccccc2-c2nc(=O)o[nH]2)cc1 [Example 36, 1-[[2'-(2,5-Dihydro-5-oxo-1,2,4-oxadiazol-3-yl)biphenyl-4-yl]methyl]-2-propoxybenzimidazole-7-carboxylic acid] the inhibition at 1 µM ([1]; 10^-6 M) was 60%, the inhibition at 0.1 µM ([1]; 10^-7 M) was 18% and the inhibition in vivo at 1 mg/kg ([2]; 1 mg/kg p.o.) was > 70%.
For COC(=O)c1cccc2nc(C3CC3)n(Cc3ccc(-c4ccccc4-c4nc(=O)o[nH]4)cc3)c12 [Example 32c, Methyl 2-cyclopropyl-1-[[2'-(2,5-dihydro-5-oxo-1,2,4-oxadiazol-3-yl)biphenyl-4-yl]methyl]-benzimidazole-7-carboxylate], the inhibition at 1 µM ([1]; 10^-6 M) was 79%, the inhibition at 0.1 µM ([1]; 10^-7 M) was 40% and the inhibition in vivo at 1 mg/kg ([2]; 1 mg/kg p.o.) was > 70%.
With CCCc1nc2cccc(C(=O)O)c2n1Cc1ccc(-c2ccccc2-c2nc(=O)o[nH]2)cc1 [Example 30, 1-[[2'-(2,5-Dihydro-5-oxo-1,2,4-oxadiazol-3-yl)biphenyl-4-yl]methyl]-2-propylbenzimidazole-7-carboxylic Acid] the inhibition at 1 µM ([1]; 10^-6 M) was 77%, the inhibition at 0.1 µM ([1]; 10^-7 M) was 35% and the inhibition in vivo at 1 mg/kg ([2]; 1 mg/kg p.o.) was > 70%.

Reference: patent publication US5736555A, “Heterocyclic compounds and their use as angiotensin antagonists” (Takeda Chemical Industries, Ltd., priority 1991, dated 1998)
